# Data: patent publication US12103926B2, “Compounds for treating huntington's disease” (PTC THERAPEUTICS, INC., priority 2018, dated 2024)
# System: Endogenous Huntingtin Protein
# Experiment: Endogenous Huntingtin Protein Assay (ELISA-based MSD electrochemiluminescence assay)
# Type: cell-based
# Conditions: MW1 (expanded polyglutamine) or MAB2166 capture antibody; lysates
# Description: Compounds of Formula (I) were tested using the Meso Scale Discovery (MSD) Assay provided in International Application No. PCT/US2016/066042, filed on Dec. 11, 2016 and claiming priority to United States Provisional Application U.S. 62/265,652 filed on Dec. 10, 2015, the entire contents of which are incorporated herein by reference.
# The Endogenous Huntingtin Protein assay used in Example 1 was developed using the ELISA-based MSD electrochemiluminescence assay platform.
# Endogenous Huntingtin Protein Assay
# Meso Scale Discovery (MSD) 96-well or 384-well plates were coated overnight at 4° C. with MW1 (expanded polyglutamine) or MAB2166 monoclonal antibody (for capture) at a concentration of 1 μg/mL in PBS (30 μL per well). Plates were then washed three times with 300 μL wash buffer (0.05% Tween-20 in PBS) and blocked (100 μL blocking buffer; 5% BSA in PBS) for 4-5 hours at room temperature with rotational shaking and then washed three times with wash buffer.
# Samples (25 μL) were transferred to the antibody-coated MSD plate and incubated overnight at 4° C. After removal of the lysates, the plate was washed three times with wash buffer, and 25 μL of #5656S (Cell signaling; rabbit monoclonal) secondary antibody (diluted to 0.25 μg/mL in 0.05% Tween-20 in blocking buffer) was added to each well and incubated with shaking for 1 Hour at room temperature. Following incubation with the secondary antibody, the wells were rinsed with wash buffer after which 25 μL of goat anti-rabbit SULFO TAG secondary detection antibody (required aspect of the MSD system) (diluted to 0.25 μg/mL in 0.05% Tween-20 in blocking buffer) was added to each well and incubated with shaking for 1 hour at room temperature. After rinsing three times with wash buffer, 150 μL of read buffer T with surfactant (MSD) were added to each empty well, and the plate was imaged on a SI 6000 imager (MSD) according to manufacturers' instructions provided for 96- or 384-well plates.
row,Structure (SMILES),IC50
1,"CN(c1cnc(-c2ccc(-c3ccnc(O)c3)cc2O)cn1)C1CC(C)(C)NC(C)(C)C1 [Cpd 1, 4-(3-hydroxy-4-{5-[methyl(2,2,6,6-tetramethylpiperidin-4-yl)amino]pyrazin-2-yl}phenyl)pyridin-2-ol]",< 100 nM
2,"CC1(C)CC(Oc2cnc(-c3ccc(-c4cn[nH]c4)cc3O)cn2)CC(C)(C)N1 [Cpd 2, 5-(1H-pyrazol-4-yl)-2-{5-[(2,2,6,6-tetramethylpiperidin-4-yl)oxy]pyrazin-2-yl}phenol]",500 to 1000 nM
3,"CN(c1cnc(-c2ccc(-c3cn[nH]c3)cc2O)cn1)C1CC2(CCCCC2)NC2(CCCCC2)C1 (stereo not drawn) [Cpd 3, 2-{5-[(7-azadispiro[5.1.5^8.3^6]hexadecan-15-yl)(methyl)amino]pyrazin-2-yl}-5-(1H-pyrazol-4-yl)phenol]",1000 to 3000 nM
4,"CN(c1cnc(-c2cc(Cl)c(-c3cn[nH]c3)cc2Cl)cn1)C1CC(C)(C)NC(C)(C)C1 [Cpd 4, 5-[2,5-dichloro-4-(1H-pyrazol-4-yl)phenyl]-N-methyl-N-(2,2,6,6-tetramethylpiperidin-4-yl)pyrazin-2-amine]",1000 to 3000 nM
5,"CN(c1cnc(-c2ccc(-n3ccnc3)cc2O)cn1)C1CC(C)(C)NC(C)(C)C1 [Cpd 5, 5-(1H-imidazol-1-yl)-2-{5-[methyl(2,2,6,6-tetramethylpiperidin-4-yl)amino]pyrazin-2-yl}phenol]",500 to 1000 nM
6,"Oc1cc(-c2cn[nH]c2)ccc1-c1cnc(N2CC3CNCC3C2)cn1 (stereo not drawn) [Cpd 6, 2-[5-(hexahydropyrrolo[3,4-c]pyrrol-2(1H)-yl)pyrazin-2-yl]-5-(1H-pyrazol-4-yl)phenol]",1000 to 3000 nM
7,"Oc1cc(-c2cn[nH]c2)ccc1-c1cnc(OC2CCNCC2)cn1 [Cpd 7, 2-{5-[(piperidin-4-yl)oxy]pyrazin-2-yl}-5-(1H-pyrazol-4-yl)phenol]",1000 to 3000 nM
8,"Oc1cc(-c2cn[nH]c2)ccc1-c1cnc(NC2CCNCC2)cn1 [Cpd 8, 2-{5-[(piperidin-4-yl)amino]pyrazin-2-yl}-5-(1H-pyrazol-4-yl)phenol]",1000 to 3000 nM
9,"CN(c1cnc(-c2ccc(-c3cn[nH]c3C(F)(F)F)cc2O)cn1)C1CC(C)(C)NC(C)(C)C1 [Cpd 9, 2-{5-[methyl(2,2,6,6-tetramethylpiperidin-4-yl)amino]pyrazin-2-yl}-5-[5-(trifluoromethyl)-1H-pyrazol-4-yl]phenol]",1000 to 3000 nM
10,"CC1(C)CC(Oc2cnc(-c3ccc(-c4cn[nH]c4)c(F)c3F)cn2)CC(C)(C)N1 [Cpd 10, 2-[2,3-difluoro-4-(1H-pyrazol-4-yl)phenyl]-5-[(2,2,6,6-tetramethylpiperidin-4-yl)oxy]pyrazine]",1000 to 3000 nM
11,"Cc1cc(-c2cnc(N(C)C3CC(C)(C)NC(C)(C)C3)cn2)c(F)cc1-c1cn[nH]c1 [Cpd 11, 5-[2-fluoro-5-methyl-4-(1H-pyrazol-4-yl)phenyl]-N-methyl-N-(2,2,6,6-tetramethylpiperidin-4-yl)pyrazin-2-amine]",100 to 500 nM
12,"Cc1[nH]ncc1-c1ccc(-c2cnc(N(C)C3CC(C)(C)NC(C)(C)C3)cn2)c(O)c1 [Cpd 12, 5-(5-methyl-1H-pyrazol-4-yl)-2-{5-[methyl(2,2,6,6-tetramethylpiperidin-4-yl)amino]pyrazin-2-yl}phenol]",500 to 1000 nM
13,"CN(c1cnc(-c2ccc(-c3cn[nH]c3)c(F)c2F)cn1)C1CC(C)(C)NC(C)(C)C1 [Cpd 13, 5-[2,3-difluoro-4-(1H-pyrazol-4-yl)phenyl]-N-methyl-N-(2,2,6,6-tetramethylpiperidin-4-yl)pyrazin-2-amine]",< 100 nM
14,"CN(c1cnc(-c2ccc(-n3ccc(N)n3)cc2O)cn1)C1CC(C)(C)NC(C)(C)C1 [Cpd 14, 5-(3-amino-1H-pyrazol-1-yl)-2-{5-[methyl(2,2,6,6-tetramethylpiperidin-4-yl)amino]pyrazin-2-yl}phenol]",1000 to 3000 nM
15,"CN(c1cnc(-c2cc(F)c(-c3cn[nH]c3)cc2F)cn1)C1CC(C)(C)NC(C)(C)C1 [Cpd 15, 5-[2,5-difluoro-4-(1H-pyrazol-4-yl)phenyl]-N-methyl-N-(2,2,6,6-tetramethylpiperidin-4-yl)pyrazin-2-amine]",< 100 nM
